Laboratory results as given in US20090203877A1, “X-RAY-DENSE CONJUGATE” (Eberhard-Karls-Universitaet Tuebingen Universitaetsklinkum, priority 2006, published 2009).
“Also recorded” adds a separate entry of the source.

How the values were obtained:
Format in all cases: cell-based
[1] = test system: human malignant U373 glioma cells; assay: Uptake/staining of cells by FITC-labelled conjugates (fluorescence microscopy, CLSM, FACS, semi-thin sections); settings: for strongly labeled (heavily stained) cells, FACS: 20 min incubation; for stained cells: 260 μM in PBS, 20 min (experiments with conjugates 9-15)
Description: Fluorescence was measured in a Becton Dickinson FACSCalibur. […] The investigations were performed in triplicate.
(§1) For CT and FACS human U373 glioma cells were grown under the same conditions in 75 cm^2 culture flasks (Corning Costar, Bodenheim, Germany) (70% confluency). Accutase™ (PAA laboratories, Pasching, Austria) was added to achieve detachment of the cells which were harvested and subsequently aliquoted into Eppendorf tubes (6×10^6 cells per tube). As in the investigations performed by fluorescence microscopy, the cells in the first tube served as a control (PBS only). The cells in the other tubes were incubated with 260 μM Ultravist, 260 μM TIBA in PBS and 26 μM, 260 μM and 2.6 mM conjugates 1-4 in PBS. After a 20 minute incubation period at 37° C. in an atmosphere of 5% CO2, the cells were washed three times in PBS and centrifuged at 800 rpm for 5 minutes.
The FACS analysis was performed as described under 1.4.
(§2) The human malignant U373 and LN18 glioma cells were cultivated in 75 cm^2 culture flasks (Corning Costar) (70% confluency) under the conditions as described under 1.4, detached from the flask bottom with Accutase™ (PAA Laboratories) and in the following distributed on Eppendorf tubes (Eppendorf, Hamburg, Germany) (6×10^6 per tube). The cells in the first tube serve as a control (only PBS buffer only). The cells in the other ten tubes were each incubated with benzoic acid (BA), monoiodobenzoic acid (MIBA) or diiodobenzoic acid (DIBA) alone (260 μM), conjugate 3 alone (260 μM), conjugate 3 plus either BA, MIBA or DIBA (260 μM), respectively, and the conjugates 9, 10, and 11 alone. (260 μM).
(§3) After an incubation of 20 minutes at 37° C./5% CO2 the cells were washed three times with PBS buffer and centrifuged at 800 rpm (rounds per minute) for 5 minutes. The fluorescence was measured in Becton Dickinson FACSCalibur as described under 1.4. The computer tomography was performed as described under 1.5.1. The examinations were repeated two times.
For the CT and FACS examinations human LN-18 and U373 glioma cells were cultivated in 75 cm^2 culture flasks (Corning Costar) (70% confluency) (conditions as described under 1.4). Accutase™ (PAA Laboratories) was added to detach the cells from the bottom of the culture flasks. The cells were collected and then distributed on Eppendorf tubes (6×10^6 cells per tube). The cells in the first two tubes serve as a control (in each case only PBS, LN18 and U373 glioma cells, native). The cells in the other tubes (in each case LN18 and U373 glioma cells) were incubated with a 260 μM or 2.6 mM solution of the conjugate 12 for 20 minutes at 37° C. and 5% CO2 and in the following washed for three times with PBS buffer and centrifuged for 5 minutes with 800 rpm (rounds per minute). For a small amount of the cells it was tested by the MMT test (see 1.4) how many of the cells were still viable. The computer tomography of the cell centrifuges was performed with the Somatom Sensation 16 (Siemens).
(§4) The FACS analysis was performed as described under 1.4. The assay was repeated two times.
For the CT and FACS examinations human LN18 and U373 glioma cells were cultivated in 75 cm^2 culture flasks (70% confluency) (conditions as described under section 1). Accutase™ (PAA Laboratories) was added to detach the cell from the culture bottom. The cells were collected and then distributed on Eppendorf-tubes (6×10^6 cells per tube). […] The next three tubes were used for the coincubation of the cells either with trichlorobenzoic acid (TCBA), trifluorobenzoic acid (TFBA) or tribromophenyl Isocyanat (TBPI) and the NLS-FITC-conjugate 3 (260 μM). As control cells were used which were only either incubated with CIBA, FIBA, TBPI (in each case 260 μM in PBS) or with PBS-buffer (native control) alone. […] The computer tomography and FACS analysis of the cell centrifuges were performed as described in 1.5.1 or 1.4, respectively for three times. […]

[2] = test system: human malignant LN18 glioma cells; assay: Uptake/staining of cells by FITC-labelled conjugates (CLSM, FACS, semi-thin sections); settings: 20 min; for stained cells: 260 μM in PBS; for nuclear staining of cells (CLSM), in words: 260 μM
Description: as §2
as §3, with “times. […]” for “times.”
as §4
For the CT and FACS examinations human LN18 and U373 glioma cells were cultivated in 75 cm^2 culture flasks (70% confluency) (conditions as described under section 1). Accutase™ (PAA Laboratories) was added to detach the cell from the culture bottom. The cells were collected and then distributed on Eppendorf-tubes (6×10^6 cells per tube). […] The next three tubes were used for the coincubation of the cells either with trichlorobenzoic acid (TCBA), trifluorobenzoic acid (TFBA) or tribromophenyl Isocyanat (TBPI) and the NLS-FITC-conjugate 3 (260 μM). As control cells were used which were only either incubated with CIBA, FIBA, TBPI (in each case 260 μM in PBS) or with PBS-buffer (native control) alone. […] The computer tomography and FACS analysis of the cell centrifuges were performed as described in 1.5.1 or 1.4, respectively for three times.
All measurements were performed on living cells.
All measurements were performed on living cells in triplicates.
A part of the cells which were stained for the FACS analysis, was fixed by paraformaldehyl with 2% Agar, dehydrogenized in ethanol, embedded in Lowicryl K4M (Polysciences, Eppelheim, Germany) and according to the information of the manufacturer UV-polymerised at room temperature. Semi-thin sections (about 0.4 μm) were cut and evaluated by means of fluorescence microscopy.

[3] = test system: human malignant LN18 glioma cells; assay: Cell viability / cell death (annexin-V-Alexa 568 binding, propidium iodide, FACS scatter morphology); settings: 260 μM, 20 min, substance alone
Description: All measurements were performed on living, non-fixed cells. […] All measurements were performed on living cells. […] All measurements were performed on living cells in triplicates. […] All measurements were performed on living cells.

[4] = test system: human malignant U373 glioma cells; assay: Computer tomography, signal density of cell pellets
Description: as §1
The inner ear spiral CT protocol consisted of: tube voltage 120 KV, effective mAs 550, time of imaging TI: 1.5, SL 0.75/0.75/4.5, FOV: 50 0/52, kernel: U70, window: intervertebral disc.
3D-images were obtained using InSpace Software (Syngo CT 2006G) (Siemens AG, Erlangen, Germany).
as §3, with “times. […]” for “times.”
An Orbita CT spiral was used: tube voltage 120 KV, effective mAs 550, time of imaging TI: 1.5, SL 0.75/0.75/4.5, FOV: 50 0/52, GT: 0.0, kernel: U70, window: intervertebral disc. 3D images were made with the InSpace Software (Syngo CT 2006G) (Siemens AG, Erlangen, Germany). […]

Substance	strongly labeled (heavily stained) cells, FACS ([1]; 26 μM) [%]	stained cells [1] [%]	strongly labeled (heavily stained) cells, FACS ([1]; 260 μM) [%]	strongly labeled (heavily stained) cells, FACS ([1]; 2.6 mM) [%]	number of stained cells / cellular staining rate ([1]; conjugate co-incubated with free TIBA (260 μM))	stained cells [2] [%]	nuclear staining of cells (CLSM), in words [2]	cell death / vitality (annexin-V-Alexa 568, propidium iodide) [3]	staining of cell nuclei (CLSM overview) ([1]; 260 μM)	staining of nucleoli in semi-thin sections (about 0.4 μm) ([1]; fluorescence microscopy after incubation)	CT signal density of cell pellets ([4]; 26 μM, 20 min)	CT signal density of cell pellets ([4]; 260 μM, 20 min)	CT signal density of cell pellets ([4]; 2.6 mM, 20 min)	CT signal density of cell pellets ([4]; varying concentrations (26 μM, 260 μM and 2.6 mM) and PBS alone)
PKKKRKVK(FITC)GGK (FITC, GGK linker) [conjugate 3, FITC-labelled correct NLS of the SV 40 T antigen without TIBA]	6	8	7	10	not associated with a higher cellular staining rate; also recorded: did not result in any changes	9	nuclear staining of few cells; also recorded: does only stain the nucleus of few cells	remain vital; also recorded: did not show any signs of cell death; also recorded: without a sign of cell dead						
PKKKRKVK(FITC)GGK(BA) (FITC, GGK linker, benzoic acid) [conjugate 9, FITC-labelled NLS of the SV 40 T antigen with non-iodized benzoic acid]		8				9	nuclear staining of few cells; also recorded: the staining rate did not increase	remain vital; also recorded: no signs of cell death; also recorded: remain viable						
PKKKRKVK(FITC)GGK(TIBA) (FITC, GGK linker, TIBA) [conjugate 1, FITC-labelled correct NLS of the SV 40 T antigen with TIBA]	32		32	93					A very large number of cell nuclei has been stained	clearly stained	only low signal density values	significant increase in signal density	significant increase in signal density	did result in differences in signal densities
